The values below are quoted from earlier work in paper PMC9558053, “Development of a novel high-throughput screen for the identification of new inhibitors of protein S-acylation” (The Journal of Biological Chemistry, 2022).

Molecules are shown by their SMILES.

The test system of this series is zDHHC20. Set-up: method as in PMID 34467875, PMID 34309372. The following applies: ref [33], [39]; read-out: IC50 for inhibition of zDHHC20 activity in vitro; cited from earlier work.

Usually IC50 stands for the midpoint of a concentration-inhibition curve. For the compound `C=CC(=O)N(CC#N)CCCCCCCCCCCCCC` [N-cyanomethyl-N-myracrylamide], the IC50 was 1350 ± 260 nM.
